Laboratory results: publication PMC11790914, “Chemogenomics for steroid hormone receptors (NR3)” (Communications Chemistry, 2025)
“And” between values parts separate entries of the source, which are not always exact repeats. Equal values may be shown once. “Also recorded” adds a separate entry of the source.

Tests used:
[1] = test system: Gal4-VP16; type: cell-based; details: 1 µM
Description: Five hours after transfection, the cells were incubated with the NR3 CG compound candidates at the recommended concentrations by changing the medium to Opti-MEM supplemented with penicillin (100 µ/mL) and streptomycin (100 µg/mL) additionally containing 0.1% DMSO and the respective test compound or 0.1% DMSO alone as untreated control. Firefly (reporter) and renilla (control) luminescence were measured after 14–16 h incubation using the Dual-Glo® Luciferase Assay System (Promega, Fitchburg, Wisconsin, USA; #E2980) according to manufacturer’s protocol on a Tecan Spark® 10M multimode microplate reader (Tecan Group AG, Männedorf, Switzerland). To obtain relative light units (RLU) firefly luminescence was divided by renilla luminescence and multiplied by 1000. Fold activation was obtained by dividing the mean RLU of a test sample by the mean RLU of the DMSO (0.1%) control. Experiments were performed in singlets in at least three biologically independent repeats.
are labeled according to their mode of action (yellow - agonist, grey - antagonist, grey with label D - degrader) and grouped by their
NR3 subfamily main targets.
reporter activity at the indicated concentrations expressed as mean fold reporter gene activity (n=3).

[2] = molecular target: T1, ABL1 (Homo sapiens, UniProt P00519); assay: Liability panel screening by DSF: ABL1; type: binding; details: DSF, 20 µM, n=2; for ΔTm at 20 µM: read-out: Mean ΔTM ABL1
T1 construct: made in house
T1 sequence (P00519 whole entry, species assumed): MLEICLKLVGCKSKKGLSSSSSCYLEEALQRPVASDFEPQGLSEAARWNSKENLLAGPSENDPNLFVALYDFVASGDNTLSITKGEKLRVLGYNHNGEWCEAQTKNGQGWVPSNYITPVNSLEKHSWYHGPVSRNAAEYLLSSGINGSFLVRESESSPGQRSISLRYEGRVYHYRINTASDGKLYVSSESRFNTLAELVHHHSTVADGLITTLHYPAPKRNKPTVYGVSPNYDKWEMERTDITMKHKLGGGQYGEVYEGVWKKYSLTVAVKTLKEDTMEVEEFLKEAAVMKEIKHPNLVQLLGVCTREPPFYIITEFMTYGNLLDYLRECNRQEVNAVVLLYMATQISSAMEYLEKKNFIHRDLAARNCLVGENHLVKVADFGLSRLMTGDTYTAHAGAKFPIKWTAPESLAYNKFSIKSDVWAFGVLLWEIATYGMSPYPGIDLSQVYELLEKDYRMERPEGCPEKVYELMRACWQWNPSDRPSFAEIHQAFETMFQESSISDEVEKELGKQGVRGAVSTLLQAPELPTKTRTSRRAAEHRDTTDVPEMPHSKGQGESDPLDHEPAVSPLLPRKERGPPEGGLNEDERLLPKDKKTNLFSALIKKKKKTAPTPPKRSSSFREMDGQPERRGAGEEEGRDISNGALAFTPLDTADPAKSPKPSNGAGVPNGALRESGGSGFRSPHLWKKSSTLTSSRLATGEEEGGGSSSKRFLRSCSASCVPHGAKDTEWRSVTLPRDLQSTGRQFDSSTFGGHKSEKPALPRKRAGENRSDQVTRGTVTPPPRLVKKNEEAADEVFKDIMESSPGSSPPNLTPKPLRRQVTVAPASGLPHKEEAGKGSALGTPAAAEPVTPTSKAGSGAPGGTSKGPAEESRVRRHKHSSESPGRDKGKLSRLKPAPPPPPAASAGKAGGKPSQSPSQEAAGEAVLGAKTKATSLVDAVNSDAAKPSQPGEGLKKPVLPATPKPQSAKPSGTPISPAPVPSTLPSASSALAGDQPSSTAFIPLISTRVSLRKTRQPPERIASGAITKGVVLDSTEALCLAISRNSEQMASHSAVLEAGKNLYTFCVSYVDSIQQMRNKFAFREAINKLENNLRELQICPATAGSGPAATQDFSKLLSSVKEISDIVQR
Procedure, shortened: (§1)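 Thermal shift: in-house recombinant protein at 2 µM in 10 mM HEPES pH 7.5 with 500 mM NaCl, SYPRO Orange 1:1000, heated at 3 °C/min to 85 °C in technical duplicates. Tm is the Boltzmann inflection point, reported as ∆Tm in K.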

[3] = molecular target: T2, AURKA (Homo sapiens, UniProt O14965); assay: Liability panel screening by DSF: AURKA; type: binding; details: DSF, 20 µM, n=2; for ΔTm at 20 µM: read-out: Mean ΔTM AURKA
T2 construct: made in house
T2 sequence (O14965 1-403): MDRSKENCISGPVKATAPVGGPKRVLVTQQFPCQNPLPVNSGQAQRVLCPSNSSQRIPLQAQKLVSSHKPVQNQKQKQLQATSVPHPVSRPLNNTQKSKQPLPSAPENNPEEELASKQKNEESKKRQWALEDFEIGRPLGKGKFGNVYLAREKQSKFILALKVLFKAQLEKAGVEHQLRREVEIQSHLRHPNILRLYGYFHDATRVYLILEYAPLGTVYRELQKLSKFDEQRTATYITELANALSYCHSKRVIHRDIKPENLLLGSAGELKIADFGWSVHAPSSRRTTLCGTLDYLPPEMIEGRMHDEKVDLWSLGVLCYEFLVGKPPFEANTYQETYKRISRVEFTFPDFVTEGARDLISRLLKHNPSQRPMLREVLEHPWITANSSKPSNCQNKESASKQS
Procedure, shortened: as §1

[4] = molecular target: T3, CDK2 (Homo sapiens, UniProt P24941); assay: Liability panel screening by DSF: CDK2; type: binding; details: DSF, 20 µM, n=2; for ΔTm at 20 µM: read-out: Mean ΔTM CDK2
T3 construct: made in house
Procedure, shortened: as §1

[5] = molecular target: T4, FGFR3 (Homo sapiens, UniProt P22607); assay: Liability panel screening by DSF: FGFR3; type: binding; details: DSF, 20 µM, n=2; for ΔTm at 20 µM: read-out: Mean ΔTM FGFR3
T4 construct: made in house
T4 sequence (P22607 23-806, species assumed): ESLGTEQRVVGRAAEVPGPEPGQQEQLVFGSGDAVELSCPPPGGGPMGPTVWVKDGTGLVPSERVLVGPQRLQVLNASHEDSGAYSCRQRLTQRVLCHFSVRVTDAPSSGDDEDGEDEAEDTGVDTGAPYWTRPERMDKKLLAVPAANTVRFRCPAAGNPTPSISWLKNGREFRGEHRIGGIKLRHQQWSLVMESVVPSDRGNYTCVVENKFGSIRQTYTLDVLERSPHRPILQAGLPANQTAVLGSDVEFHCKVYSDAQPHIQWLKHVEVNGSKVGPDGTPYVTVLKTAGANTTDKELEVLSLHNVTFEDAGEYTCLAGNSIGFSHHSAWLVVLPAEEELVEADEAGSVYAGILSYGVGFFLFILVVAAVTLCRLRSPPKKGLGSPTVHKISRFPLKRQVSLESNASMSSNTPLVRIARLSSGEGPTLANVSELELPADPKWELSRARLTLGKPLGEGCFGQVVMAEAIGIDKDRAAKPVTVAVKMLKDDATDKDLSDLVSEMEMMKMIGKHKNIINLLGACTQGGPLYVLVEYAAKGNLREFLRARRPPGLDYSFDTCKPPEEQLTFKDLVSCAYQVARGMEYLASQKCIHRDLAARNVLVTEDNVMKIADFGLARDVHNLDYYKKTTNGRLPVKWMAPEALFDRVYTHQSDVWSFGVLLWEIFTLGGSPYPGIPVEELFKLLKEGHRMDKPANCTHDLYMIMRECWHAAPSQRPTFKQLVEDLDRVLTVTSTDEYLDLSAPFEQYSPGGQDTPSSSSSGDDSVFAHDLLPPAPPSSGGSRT
Procedure, shortened: as §1

[6] = molecular target: T5, GSK3B (Homo sapiens, UniProt P49841); assay: Liability panel screening by DSF: GSK3B; type: binding; details: DSF, 20 µM, n=2; for ΔTm at 20 µM: read-out: Mean ΔTM GSK3B
T5 construct: made in house
T5 sequence (P49841 whole entry, species assumed): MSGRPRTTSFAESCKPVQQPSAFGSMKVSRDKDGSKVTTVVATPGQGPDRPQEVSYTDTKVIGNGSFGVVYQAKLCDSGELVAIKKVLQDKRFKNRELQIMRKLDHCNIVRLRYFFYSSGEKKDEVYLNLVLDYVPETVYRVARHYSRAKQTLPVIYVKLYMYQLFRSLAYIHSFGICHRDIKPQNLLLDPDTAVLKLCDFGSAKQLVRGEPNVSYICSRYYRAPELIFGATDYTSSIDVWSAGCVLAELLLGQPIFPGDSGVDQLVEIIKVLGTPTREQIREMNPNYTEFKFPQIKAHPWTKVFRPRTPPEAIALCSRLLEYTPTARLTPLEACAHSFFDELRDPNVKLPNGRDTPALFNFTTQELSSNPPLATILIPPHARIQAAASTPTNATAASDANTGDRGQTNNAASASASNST

[7] = molecular target: T6, BRD4 (Homo sapiens, UniProt O60885); assay: Liability panel screening by DSF: BRD4; type: binding; details: DSF, 20 µM, n=2; for ΔTm at 20 µM: read-out: Mean ΔTM BRD4
T6 construct: This panel comprised ten highly ligandable kinases and bromodomains; made in house
Procedure, shortened: as §1

[8] = molecular target: T7, BRPF1 (Homo sapiens, UniProt P55201); assay: Liability panel screening by DSF: BRPF1; type: binding; details: DSF, 20 µM, n=2; for ΔTm at 20 µM: read-out: Mean ΔTM BRPF1
T7 construct: This panel comprised ten highly ligandable kinases and bromodomains; made in house
T7 sequence (P55201 628-732 limits assumed): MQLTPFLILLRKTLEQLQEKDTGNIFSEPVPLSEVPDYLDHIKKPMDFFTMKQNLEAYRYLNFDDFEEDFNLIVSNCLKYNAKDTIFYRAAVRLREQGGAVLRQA
Procedure, shortened: as §1

[9] = molecular target: T8, CSNK1D (Homo sapiens, UniProt P48730); assay: Liability panel screening by DSF: CSNK1D; type: binding; details: DSF, 20 µM, n=2; for ΔTm at 20 µM: read-out: Mean ΔTM CSNK1D
T8 construct: made in house
T8 sequence (P48730 whole entry, species assumed): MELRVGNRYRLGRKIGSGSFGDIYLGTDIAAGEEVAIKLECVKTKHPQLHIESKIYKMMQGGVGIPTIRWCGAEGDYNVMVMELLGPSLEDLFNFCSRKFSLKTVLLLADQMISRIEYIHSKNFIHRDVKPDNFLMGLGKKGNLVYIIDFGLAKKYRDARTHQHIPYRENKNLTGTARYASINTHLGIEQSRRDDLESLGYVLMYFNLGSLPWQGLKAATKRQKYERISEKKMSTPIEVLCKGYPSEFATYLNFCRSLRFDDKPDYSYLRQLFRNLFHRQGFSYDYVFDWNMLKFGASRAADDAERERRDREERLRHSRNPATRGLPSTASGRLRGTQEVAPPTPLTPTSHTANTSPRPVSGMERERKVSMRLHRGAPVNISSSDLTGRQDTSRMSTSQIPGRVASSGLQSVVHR
Procedure, shortened: as §1

[10] = molecular target: T9, MAPK1 (Homo sapiens, UniProt P28482); assay: Liability panel screening by DSF: MAPK1; type: binding; details: DSF, 20 µM, n=2; for ΔTm at 20 µM: read-out: Mean ΔTM MAPK1
T9 construct: made in house
T9 sequence (P28482 whole entry, species assumed): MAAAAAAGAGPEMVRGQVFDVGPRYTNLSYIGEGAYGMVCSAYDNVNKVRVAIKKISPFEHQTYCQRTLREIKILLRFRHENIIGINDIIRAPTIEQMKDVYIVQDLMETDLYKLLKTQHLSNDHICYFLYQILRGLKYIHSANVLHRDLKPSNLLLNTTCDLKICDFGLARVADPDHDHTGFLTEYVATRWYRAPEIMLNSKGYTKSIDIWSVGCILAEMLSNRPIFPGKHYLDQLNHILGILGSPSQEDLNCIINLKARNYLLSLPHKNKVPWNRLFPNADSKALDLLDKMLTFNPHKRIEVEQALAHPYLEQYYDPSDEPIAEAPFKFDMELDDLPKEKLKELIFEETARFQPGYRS
Procedure, shortened: as §1

[11] = molecular target: T10, TRIM24 (Homo sapiens, UniProt O15164); assay: Liability panel screening by DSF: TRIM24; type: binding; details: DSF, 20 µM, n=2; for ΔTm at 20 µM: read-out: Mean ΔTM TRIM24
T10 construct: This panel comprised ten highly ligandable kinases and bromodomains; made in house
T10 sequence (O15164 899-1004 limits assumed): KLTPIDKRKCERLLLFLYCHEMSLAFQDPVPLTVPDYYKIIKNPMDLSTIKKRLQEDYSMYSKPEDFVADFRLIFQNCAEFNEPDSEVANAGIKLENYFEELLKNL
Procedure, shortened: as §1

[12] = test system: HEK293T cells; assay: Cytotoxicity: metabolic activity (WST-8 / CCK-8 assay); details: single replicates
[13] = test system: HEK293T cells; assay: Cytotoxicity: growth-rate (change in confluence over 24 h); details: normalized to 0.1% DMSO control, single replicates (n=1...)
[14] = test system: HEK293T cells; assay: Cytotoxicity: apoptosis induction (caspase-3/7 DEVD fluorogenic DNA dye); details: for Apoptosis induction [AI]: single replicates
Description: Cells were incubated with the test compounds at the indicated concentrations solubilized with 0.1% DMSO for 24 h. Growth-rate was determined based on the change in confluence over 24 h normalized to the change in confluence of cells treated with the 0.1% DMSO control (n = 10). Metabolic activity was determined with a water-soluble tetrazolium-8 (WST-8) assay (n = 8) after 24 h treatment. Apoptotic cells were detected with a fluorogenic DNA dye coupled to the caspase-3/7 recognition sequence (DEVD) after 24 h treatment and the apoptotic cell count was normalized to 0.1% DMSO treated cells (n = 6).
HEK293T cells (German Collection of Microorganisms and Cell Culture GmbH, DSMZ; #ACC305) were cultured in DMEM high glucose, supplemented with 10% fetal calf serum (FCS), sodium pyruvate (1 mM), penicillin (100 µ/mL) and streptomycin (100 µg/mL) at 37 °C and 5% (v/v) CO2, and seeded in pre-coated (10 µg/mL collagen G solution (Merck KgaA; #L7213) for 30 min at 37 °C) 96-well plates (2 × 10^5 cells per well). After 24 h, the cells were treated with the respective NR3 CG compound candidate at the recommended concentration, bexarotene (100 µM) or doxorubicin (30 µM) as positive controls in DMEM high glucose supplemented with 0.1% FCS, penicillin (100 µ/mL), streptomycin (100 µg/mL) and 0.1% DMSO, or 0.1% DMSO alone as an untreated control. Each sample was prepared in at least four biologically independent replicates. […] Thereafter, the medium was aspirated and the cells were incubated for 3 h with 90 µL DMEM high glucose supplemented with 0.2% FCS, penicillin (100 µ/mL) and streptomycin (100 µg/mL) and additionally containing 10 µL Cell Counting Kit 8 solution (CCK-8; MedChemExpress, Monmouth Junction, New York, USA; #HY-K0301), and absorbance was measured at 1 h, 2 h and 3 h of incubation at 450 nm on a Tecan Spark Cyto to assess metabolic activity of the cells. Before drug administration, after the first medium exchange, 24 h after drug administration, and after fluorescence imaging cell confluence was assessed using the Tecan Spark Cyto, to account for changes in cell confluence due to drug administration and cell handling. Compound effects on cell confluence, apoptosis, metabolic activity and necrosis were normalized to the vehicle control of each biological replicate individually.

[15] = test system: HEK293T cells; assay: Cytotoxicity: necrosis induction (red fluorescent dye for permeable plasma membranes); type: cell-based; details: 24 h, necrotic cell count normalized to 0.1% DMSO, single replicates;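 further: compounds applied in DMEM high glucose with 0.1% FCS and 0.1% DMSO, necrotic HEK293T cells counted by red staining of cells whose plasma membranes had become permeable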
[16] = test system: ATF6 activity in Hela ATF6 reporter cells; assay: Endoplasmic reticulum stress assay (ATF6 Renilla luciferase reporter, tunicamycin); type: cell-based
Procedure, shortened: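 ER stress was induced by 100 ng/mL tunicamycin added 4 h after compound (0.1% DMSO) to HeLa ATF6 reporter cells. After 18 h more, Renilla luciferase signal was read and expressed relative to DMSO control, n=5 biological replicates.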

[17] = Homo sapiens, HeLa, single replicates n=1 to n=5, read-out: ER stress [rel. ATF6 activity]
[18] = 3 µM, HEK293T, 24 h, WST-8, normalized to 0.1% DMSO
[19] = 3 µM, HEK293T, 24 h, apoptotic cell count normalized to 0.1% DMSO

Compound | ΔTm at 20 µM [2] [°C] | ΔTm at 20 µM [3] [°C] | ΔTm at 20 µM [4] [°C] | ΔTm at 20 µM [5] [°C] | ΔTm at 20 µM [6] [°C] | ΔTm at 20 µM [7] [°C] | ΔTm at 20 µM [8] [°C] | ΔTm at 20 µM [9] [°C] | ΔTm at 20 µM [10] [°C] | ΔTm at 20 µM [11] [°C] | Mean ΔTM ABL1 [2] [K] | Mean ΔTM AURKA [3] [K] | Mean ΔTM CDK2 [4] [K] | Mean ΔTM GSK3B [6] [K] | Mean ΔTM BRD4 [7] [K] | Mean ΔTM BRPF1 [8] [K] | Mean ΔTM CSNK1D [9] [K] | Mean ΔTM MAPK1 [10] [K] | Mean ΔTM TRIM24 [11] [K] | Growth rate [GR] ([13]; 3 µM) | also measured
CC/C(=C(/c1ccc(/C=C/C(=O)O)cc1)c1ccc2[nH]ncc2c1)c1ccc(F)cc1Cl [ARN810] | -5.16 | 1.69 | -3.66 | -5.4 | 3.37 | -0.16 | 0 | -4.37 | 0 | 0 | – | – | – | – | – | – | – | – | – | – | VP16 control [fold reporter gene activity] (n=3), n=1 ([1]; replicate n=1): 1.06 fold; VP16 control [fold reporter gene activity] (n=3), n=2 ([1]; replicate n=2): 1.05 fold; VP16 control [fold reporter gene activity] (n=3), n=3 ([1]; replicate n=3): 1.02 fold; Metabolic activity [MA] ([12]; 1 µM, DMSO 0.1% = 1.00): 0.99 and 1.09 and 0.98 and 0.97 and 1.01 and 1.03; Growth rate [GR] ([13]; 1 µM): 0.88 and 0.90 and 1.13 and 0.87 and 1.11 and 0.85; Apoptosis induction [AI] ([14]; 1 µM, DMSO 0.1% = 1.00): 0.78 and 0.92
COc1ccc(-c2coc3cc(O)cc(O)c3c2=O)cc1 [Biochanin A] | – | – | – | – | – | – | – | – | – | – | 1.61 | 1.95 | 1.69 | -0.89 | 0.32 | 2.98 | -0.77 | 0.55 | 2.59 | – | Mean ΔTM FGFR3 [5]: 1.13 K; Metabolic activity [MA] ([12]; 10 µM, DMSO 0.1% = 1.00): 0.87 and 0.81 and 1.01 and 0.90 and 1.15 and 0.98; Growth rate [GR] ([13]; 10 µM): 0.50 and 0.90 and 0.87 and 0.72 and 0.82 and 0.61; Apoptosis induction [AI] ([14]; 10 µM, DMSO 0.1% = 1.00): 0.76 and 0.84
CCCC1O[C@@H]2C[C@H]3[C@@H]4CCC5=CC(=O)C=C[C@]5(C)[C@H]4[C@@H](O)C[C@]3(C)[C@]2(C(=O)CO)O1 (stereo partly shown) [Budesonide] | 0.48 | -0.16 | 0.00668 | -0.77 | -0.4 | -1.67 | -1.04 | -0.0262 | -0.27 | -0.81 | – | – | – | – | – | – | – | – | – | 0.90 and 1.09 and 1.10 and 0.85 and 0.69 and 0.78 | Metabolic activity [MA] ([12]; 0.3 µM, DMSO 0.1% = 1.00): 1.02 and 0.97 and 1.07 and 0.99 and 1.12 and 1.03; Metabolic activity [MA] ([12]; 3 µM, DMSO 0.1% = 1.00): 0.86 and 0.88 and 1.03 (2×) and 1.13 and 0.99; Growth rate [GR] ([13]; 0.3 µM): 0.59 and 0.92 (3×) and 1.24 and 0.68; Apoptosis induction [AI] ([14]; 0.3 µM, DMSO 0.1% = 1.00): 1.00 and 1.74; Apoptosis induction [AI] ([14]; 3 µM, DMSO 0.1% = 1.00): 1.77 and 1.74; apoptosis induction ([14]; HEK293T, 24 h, budesonide (3 µM), others at tested concentration): slight apoptosis induction
CC/C(=C(/CC)c1ccc(O)cc1)c1ccc(O)cc1 [Diethylstilbestrol] | -0.96 | -1.78 | -5.57 | -8.29 | -3.54 | -4.78 | -8.49 | -0.81 | -12.2 | 1.49 | – | – | – | – | – | – | – | – | – | reduced the growth-rate and -0.21 and 0.65 and -0.29 and 0.04 and 0.36 and 0.21 and 0.28 and 1.17 and 0.46 and -0.41 | Necrosis induction [NI] ([15]; 0.3 µM): 0.86 and 0.98 and 1.34; Necrosis induction [NI] ([15]; 3 µM): 0.69 and 0.58 and 0.64 and 0.72; ATF6 activity (tunicamycin-induced endoplasmic reticulum stress) ([16]; Hela ATF6 reporter cells, tunicamycin 100 ng/mL, 18 h, compounds at recommended concentrations, n = 5): lacked this effect; also recorded: failed to reduce ATF6 activity; activity at 0.3 µM ([16]; Homo sapiens, HeLa, 0.3 µM, single replicates n=1 to n=5, read-out: ER stress [rel. ATF6 activity]): 98%; activity at 3 µM [16, 17]: 98% and 101%; Metabolic activity [MA] ([12]; 0.3 µM, HEK293T, 24 h, WST-8, normalized to 0.1% DMSO): 1.04 (3×) and 0.90 and 0.95 and 1.03 and 0.96 and 1.14; Metabolic activity [MA] [12, 18]: 0.90 and 0.94 and 1.10 and 1.00 (2×) and 0.60 and 0.78; Growth rate [GR] ([13]; 0.3 µM): 0.65 and 4.06 and 0.84 and 0.92 and 1.28 and 1.00 and 0.79 and 1.42 and 0.91 and 9.54; Apoptosis induction [AI] ([14]; 0.3 µM, HEK293T, 24 h, apoptotic cell count normalized to 0.1% DMSO): 0.86 and 1.37 (2×) and 0.83 and 1.54 and 0.77; Apoptosis induction [AI] [14, 19]: 0.65 and 0.97 and 0.69 and 0.85 and 1.67 and 1.65
CC#C[C@]1(O)CC[C@H]2[C@@H]3CCC4=CC(=O)CCC4=C3[C@@H](c3ccc(N(C)C)cc3)C[C@@]21C [Mifepristone] | 0.11 | -1.55 | -0.0248 | 0.14 | -1.3 | -2.39 | -2.63 | 0.0217 | -0.7 | -0.92 | – | – | – | – | – | – | – | – | – | 0.65 and 3.36 and 0.73 and 0.97 and 1.04 and 0.86 and 1.00 and 1.72 and 1.53 and 3.99 | Necrosis induction [NI] ([15]; 3 µM): 1.14 and 0.95 and 0.92 and 0.99; activity at 3 µM [16, 17]: 99%; Metabolic activity [MA] [12, 18]: 1.08 and 1.01 and 1.00 and 1.09 and 1.04 and 1.03 and 1.16 (2×); Apoptosis induction [AI] [14, 19]: 1.09 and 1.02 and 1.10 and 1.15 and 0.56 and 0.53
C/C=C1\C(=O)C[C@H]2[C@@H]3CCC4=CC(=O)CC[C@]4(C)[C@H]3CC[C@]12C [Z-Guggulsterone] | – | – | – | – | – | – | – | – | – | – | 0.07 | -1.78 | -0.30 | -1.05 | -2.62 | -1.36 | 0.63 | 0.47 | -2.32 | 0.73 and 0.88 and 1.06 and 0.96 and 0.82 and 1.15 | Metabolic activity [MA] ([12]; 3 µM, DMSO 0.1% = 1.00): 1.00 and 0.94 and 1.08 and 1.06 and 1.18 and 1.15; Apoptosis induction [AI] ([14]; 3 µM, DMSO 0.1% = 1.00): 0.63 and 1.35
